Reference: ChEMBL document CHEMBL2157997, “β-D-2'-α-F-2'-β-C-Methyl-6-O-substituted 3',5'-cyclic phosphate nucleotide prodrugs as inhibitors of hepatitis C virus replication: a structure-activity relationship study” (Bioorg Med Chem Lett, 2012)

Experiments:
[1] = Half life in human plasma; format: ADME, cell-free
[2] = Cytotoxicity against human HuH7 cells; format: cell-based; conditions: Huh-7 cells
[3] = Half life in simulated intestinal fluid; format: physicochemical
[4] = Half life in rat plasma; format: ADME, cell-free
Hepatitis C virus [5] = assay: Antiviral activity against Hepatitis C virus genotype 1b replicon infected in clone A cells assessed as inhibition of viral replication by RT-PCR analysis; format: functional, Hepacivirus hominis
[6] = Half life in human liver S9 fraction; format: ADME, subcellular
Hepatitis C virus [7] = assay: Antiviral activity against Hepatitis C virus genotype 1b replicon infected in Lunet cells by luciferase reporter gene assay; format: functional, Hepacivirus hominis
[8] = Half life in simulated gastric fluid; format: physicochemical
Hepatocyte = assay: Prodrug activation in human primary hepatocytes assessed as assessed as Tmax of beta-D-2'-deoxy-2'-alpha-fluoro-2'-beta-C-methylguanosine triphosphate level at 100 uM; format: cell-based, Liver
[9] = Half life in rat at 40 mg/kg, po administered QD measured after 1 day; format: ADME, organism-based; parameters: dose 40 mg/kg, route oral; conditions: in vivo
Rattus norvegicus [10] = assay: Prodrug conversion in rat liver assessed as beta-D-2'-deoxy-2'-alpha-fluoro-2'-beta-C-methylguanosine triphosphate level at 40 mg/kg, po administered QD as repeated dose measured at 4 hrs post-dosing on day 8; format: ADME, organism-based; parameters: dose 40 mg/kg, route oral; conditions: in vivo
[11] = AUClast in rat at 40 mg/kg, po administered QD measured after 7 days; format: ADME, organism-based; parameters: dose 40 mg/kg, route oral; conditions: plasma
Rattus norvegicus [12] = assay: Prodrug activation in rat liver assessed as beta-D-2'-deoxy-2'-alpha-fluoro-2'-beta-C-methylguanosine monophosphate level at 40 mg/kg, po administered QD as repeated dose measured at 4 hrs post-dosing on day 8; format: organism-based; parameters: dose 40 mg/kg, route oral; conditions: in vivo
HepG2 [13] = assay: Cytotoxicity against human HepG2 cells up to 100 uM after 8 days by MTT assay; format: cell-based; conditions: hepg2, 192 h
Huh-7 [14] = assay: Cytotoxicity against human HuH7 cells up to 100 uM after 8 days by MTT assay; format: cell-based; conditions: huh-7, 192 h
CCRF-CEM [15] = assay: Mitochondrial toxicity against human CEM cells assessed as decrease in mitochondrial COX2 DNA up to 100 uM after 14 days by RT-PCR analysis; format: cell-based; conditions: 336 h
[16] = Cmax in rat at 40 mg/kg, po administered QD measured after 1 day; format: ADME, organism-based; parameters: dose 40 mg/kg, route oral; conditions: in vivo
Rattus norvegicus [17] = assay: Tlast in rat at 40 mg/kg, po administered QD measured after 7 days; format: ADME, organism-based; parameters: dose 40 mg/kg, route oral; conditions: in vivo, 168 h
[18] = AUClast in rat at 40 mg/kg, po administered QD measured after 1 day; format: ADME, organism-based; parameters: dose 40 mg/kg, route oral; conditions: plasma
Hepatitis C virus [19] = assay: Ratio of PSI-352938 EC90 to compound EC90 for Hepatitis C virus genotype 1b infected in clone A cells; format: functional, Hepacivirus hominis
[20] = Cmax in rat at 40 mg/kg, po administered QD measured after 7 days; format: ADME, organism-based; parameters: dose 40 mg/kg, route oral; conditions: in vivo
CCRF-CEM [21] = assay: Cytotoxicity against human CEM cells up to 100 uM after 8 days by MTT assay; format: cell-based; conditions: 192 h
[22] = AUC (infinity) in rat at 40 mg/kg, po administered QD measured after 7 days; format: ADME, organism-based; parameters: time infinity, dose 40 mg/kg, route oral; conditions: plasma
Rattus norvegicus [23] = assay: Tlast in rat at 40 mg/kg, po administered QD measured after 1 day; format: ADME, organism-based; parameters: dose 40 mg/kg, route oral; conditions: in vivo, 24 h
[24] = Half life in rat at 40 mg/kg, po administered QD measured after 7 days; format: ADME, organism-based; parameters: dose 40 mg/kg, route oral; conditions: in vivo
Hepatitis C virus [25] = assay: Antiviral activity against Hepatitis C virus expressing NS5B S282T mutant by cell-based replicon assay; format: functional, Hepacivirus hominis
Rattus norvegicus [26] = assay: Prodrug activation in rat liver assessed as free nucleoside level at 40 mg/kg, po administered QD as repeated dose measured at 4 hrs post-dosing on day 8; format: organism-based; parameters: dose 40 mg/kg, route oral; conditions: in vivo
[27] = Tmax in rat at 40 mg/kg, po administered QD measured after 1 day; format: ADME, organism-based; parameters: dose 40 mg/kg, route oral; conditions: in vivo
Rattus norvegicus [28] = assay: Prodrug activation in rat liver assessed as total nucleotide level at 40 mg/kg, po administered QD as repeated dose measured at 4 hrs post-dosing on day 8; format: organism-based; parameters: dose 40 mg/kg, route oral; conditions: in vivo
[29] = Tmax in rat at 40 mg/kg, po administered QD measured after 7 days; format: ADME, organism-based; parameters: dose 40 mg/kg, route oral; conditions: in vivo
HepG2 [30] = assay: Mitochondrial toxicity against human HepG2 cells assessed as decrease in ribosomal DNA up to 100 uM after 14 days by RT-PCR analysis; format: cell-based; conditions: hepg2, 336 h
CCRF-CEM [31] = assay: Mitochondrial toxicity against human CEM cells assessed as decrease in ribosomal DNA up to 100 uM after 14 days by RT-PCR analysis; format: cell-based; conditions: 336 h
Rattus norvegicus [32] = assay: Prodrug activation in rat liver assessed as beta-D-2'-deoxy-2'-alpha-fluoro-2'-beta-C-methylguanosine diphosphate level at 40 mg/kg, po administered QD as repeated dose measured at 4 hrs post-dosing on day 8; format: organism-based; parameters: dose 40 mg/kg, route oral; conditions: in vivo
Huh-7 [33] = assay: Prodrug activation in human HuH7 cells infected with HCV genotype 1b assessed as Tmax of beta-D-2'-deoxy-2'-alpha-fluoro-2'-beta-C-methylguanosine triphosphate level at 100 uM; format: cell-based; conditions: huh-7, 100 µM
HepG2 [34] = assay: Mitochondrial toxicity against human HepG2 cells assessed as decrease in mitochondrial COX2 DNA up to 100 uM after 14 days by RT-PCR analysis; format: cell-based; conditions: hepg2, 336 h
[35] = AUC (infinity) in rat at 40 mg/kg, po administered QD measured after 1 day; format: ADME, organism-based; parameters: time infinity, dose 40 mg/kg, route oral; conditions: plasma
BXPC-3 = assay: Cytotoxicity against human BxPC3 cells up to 100 uM after 8 days by MTT assay; format: cell-based; conditions: bxpc-3, 192 h
Hepatitis C virus [36] = assay: Antiviral activity against Hepatitis C virus infected in po dosed human assessed as log reduction in viral load; format: functional, Hepacivirus hominis

With CC(C)Oc1nc(N)nc2c1ncn2[C@@H]1O[C@@H]2COP(=O)(OC(C)C)O[C@H]2[C@@]1(C)F (stereo partly specified) the half-life [1] was > 24 h, the CC90 [2] was > 100000 nM and the half-life [3] was > 20 h. The half-life [4] was > 24 h, the EC90 (Hepatitis C virus [5]) was 677 nM and the half-life [6] was 16.3 h. For the same compound, the EC90 (Hepatitis C virus [7]) was 740 nM and the half-life [8] was > 20 h.

Work on CCOP1(=O)OC[C@H]2O[C@@H](n3cnc4c(OC(C)C)nc(N)nc43)[C@](C)(F)[C@@H]2O1 (stereo partly specified) yielded an EC90 (Hepatitis C virus [7]) of 2250 nM.

For CC(C)Oc1nc(N)nc2c1ncn2[C@@H]1O[C@@H]2COP(=O)(OCc3ccccc3)O[C@H]2[C@@]1(C)F (stereo partly specified), the CC90 [2] was > 100000 nM and the EC90 (Hepatitis C virus [7]) was 40 nM.

For CC(C)Oc1nc(N)nc2c1ncn2[C@@H]1O[C@@H]2COP(=O)(O)O[C@H]2[C@@]1(C)F, the EC90 (Hepatitis C virus [7]) was > 10000 nM.

In the case of CCCOP1(=O)OC[C@H]2O[C@@H](n3cnc4c(OCC)nc(N)nc43)[C@](C)(F)[C@@H]2O1 (stereo partly specified), the CC90 [2] is reported as > 100000 nM and the EC90 (Hepatitis C virus [5]) is reported as 13300 nM.

For COc1nc(N)nc2c1ncn2[C@@H]1O[C@@H]2COP(=O)(OC3CCCC3)O[C@H]2[C@@]1(C)F (stereo partly specified), the Tmax (Hepatocyte) was 8 h, the half-life [1] was > 24 h and the half-life [9] was 1.8 h. For the same compound, the Drug metabolism (Rattus norvegicus [10]) was 3.78 nmol/g, the AUC(0-t) at 168 h [11] was 510 ng·h/mL and the Drug metabolism (Rattus norvegicus [12]) was 26.6 nmol/g. The Activity (HepG2 [13]) was “Non-toxic”, the Activity (Huh-7 [14]) was “Non-toxic” and the CC90 [2] was > 100000 nM. For the same compound, the Activity (CCRF-CEM [15]) was “Non-toxic”, the Cmax [16] was 160 ng/mL and the Tlast (Rattus norvegicus [17]) was 7.33 h. For the same compound, the AUC(0-t) at 24 h [18] was 660 ng·h/mL, the half-life [3] was 14 h and the Ratio (Hepatitis C virus [19]) was “>=10”. For the same compound, the Cmax [20] was 120 ng/mL, the Activity (CCRF-CEM [21]) was “Non-toxic” and the half-life [4] was 22 h. It also gave an AUC(0-inf) [22] of 510 ng·h/mL, a Tlast (Rattus norvegicus [23]) of 7.33 h and a half-life [24] of 0.93 h. For the same compound, the EC90 (Hepatitis C virus [5]) was 102 nM, the EC90 (Hepatitis C virus [25]) was 27 nM and the Drug metabolism (Rattus norvegicus [26]) was 21.28 nmol/g. For the same compound, the Tmax [27] was 1.67 h, the Drug metabolism (Rattus norvegicus [28]) was 61.37 nmol/g and the Tmax [29] was 1.67 h. The Activity (HepG2 [30]) was “Non-toxic”, the half-life [6] was 20 h and the Activity (CCRF-CEM [31]) was “Non-toxic”. The Drug metabolism (Rattus norvegicus [32]) was 31 nmol/g, the Tmax (Huh-7 [33]) was 72 h and the Activity (HepG2 [34]) was “Non-toxic”. It also gave an AUC(0-inf) [35] of 690 ng·h/mL, an EC90 (Hepatitis C virus [7]) of 37 nM and a half-life [8] of 9.2 h. The Activity (BXPC-3) was “Non-toxic”.

In the case of COc1nc(N)nc2c1ncn2[C@@H]1O[C@@H]2COP(=O)(OC3CCC3)O[C@H]2[C@@]1(C)F (stereo partly specified), the Tmax (Hepatocyte) is reported as > 48 h, the half-life [1] is reported as 18.3 h and the half-life [9] is reported as 1.32 h. For the same compound, the Drug metabolism (Rattus norvegicus [10]) was 3.69 nmol/g, the AUC(0-t) at 168 h [11] was 13900 ng·h/mL and the Drug metabolism (Rattus norvegicus [12]) was 29.9 nmol/g. For the same compound, the Activity (HepG2 [13]) was “Non-toxic”, the Activity (Huh-7 [14]) was “Non-toxic” and the CC90 [2] was > 100000 nM. The Activity (CCRF-CEM [15]) was “Non-toxic”, the Cmax [16] was 2080 ng/mL and the Tlast (Rattus norvegicus [17]) was 20 h. The AUC(0-t) at 24 h [18] was 9480 ng·h/mL, the half-life [3] was < 6 h and the Ratio (Hepatitis C virus [19]) was “>=10”. For the same compound, the Cmax [20] was 5170 ng/mL, the Activity (CCRF-CEM [21]) was “Non-toxic” and the half-life [4] was 15.8 h. It also gave an AUC(0-inf) [22] of 13900 ng·h/mL, a Tlast (Rattus norvegicus [23]) of 20 h and a half-life [24] of 1.43 h. It also gave an EC90 (Hepatitis C virus [5]) of 135 nM, an EC90 (Hepatitis C virus [25]) of 67 nM and a Drug metabolism (Rattus norvegicus [26]) of 15.5 nmol/g. The Tmax [27] was 1.67 h, the Drug metabolism (Rattus norvegicus [28]) was 65.93 nmol/g and the Tmax [29] was 4 h. The Activity (HepG2 [30]) was “Non-toxic”, the half-life [6] was 2.6 h and the Activity (CCRF-CEM [31]) was “Non-toxic”. The Drug metabolism (Rattus norvegicus [32]) was 32.36 nmol/g, the Tmax (Huh-7 [33]) was 48 h and the Activity (HepG2 [34]) was “Non-toxic”. For the same compound, the AUC(0-inf) [35] was 9500 ng·h/mL, the EC90 (Hepatitis C virus [7]) was 46 nM and the half-life [8] was < 4 h. The Activity (BXPC-3) was “Non-toxic”.

In the case of COc1nc(N)nc2c1ncn2[C@@H]1O[C@@H]2COP(=O)(OC3CCCCC3)O[C@H]2[C@@]1(C)F (stereo partly specified), the CC90 [2] is reported as > 10000 nM and the EC90 (Hepatitis C virus [7]) is reported as 39 nM.

With CCOc1nc(N)nc2c1ncn2[C@@H]1O[C@@H]2COP(=O)(OC(C)C)O[C@H]2[C@@]1(C)F (stereo partly specified) [PSI-352938] the Tmax (Hepatocyte) was 24 h, the half-life [1] was > 24 h and the CC90 [2] was > 100000 nM. The half-life [3] was > 20 h, the half-life [4] was > 24 h and the EC90 (Hepatitis C virus [5]) was 1370 nM. The half-life [6] was > 24 h, the Tmax (Huh-7 [33]) was 96 h and the EC90 (Hepatitis C virus [7]) was 740 nM. For the same compound, the half-life [8] was > 20 h and the Activity (Hepatitis C virus [36]) was >5 log10IU/ml.
